Data as given in ChEMBL document CHEMBL2396590, “Inhibition of HIV-1 integrase dimerization and activity with crosslinked interfacial peptides” (Bioorg Med Chem, 2013).
pIC50: −log10 of the molar value. Active and inactive are the calls of the source. The calls are words filed in the database; no cut-off is given here. Starred links: 1 amine or outer side, 2 acyl side, 3 side chain; linkers in the order of their positions; H or OH if unused. Non-standard residues stand in square brackets, D forms with d. Residues, ends and D or L forms follow the SMILES beside them. NH(CH2)9CO = O=C(CCCCCCCCCN[*:1])[*:2]; NH(CH2)8CO = O=C(CCCCCCCCN[*:1])[*:2]; X2 = O=C(C1CCCC(CN[*:1])C1)[*:2]; X3 = O=C(CC1CCN([*:1])CC1)[*:2]; Aun = NCCCCCCCCCCC(=O)O; AEEA = NCCOCCOCC(=O)O; Aoc = NCCCCCCCC(=O)O; Ahp = NCCCCCCC(=O)O; Ava = NCCCCC(=O)O

What was measured:
[1] = target: Human immunodeficiency virus type 1 integrase (Human immunodeficiency virus 1, UniProt Q7ZJM1, C280S/F185K); assay: Inhibition of HIV1 3'-processing activity of integrase F185K/C280S double mutant expressed in Escherichia coli BL21 (DE3)
[2] = system: Human immunodeficiency virus type 1 integrase (Human immunodeficiency virus 1), Q7ZJM1 [F185K,C280S]; assay: Inhibition of HIV1 integrase F185K/C280S double mutant dimerization expressed in Escherichia coli BL21 (DE3) at 110 uM after 1 hr by PAGE analysis

Row | Molecule | pIC50 [1] | inhibition [2]
1 | CC[C@H](C)[C@H](NC(=O)[C@H](CC(=O)O)NC(=O)[C@@H](NC(=O)[C@H](C)NC(=O)[C@@H](NC(=O)[C@@H](NC(=O)[C@H](CC(=O)O)NC(=O)[C@@H](NC(=O)[C@@H](NC(=O)[C@H](CCCNC(=N)N)NC(=O)[C@H](CCC(=O)O)NC(=O)CNC(=O)[C@H](C)NC(=O)CCCCCCNC(=O)[C@H](CCCNC(=N)N)NC(=O)[C@H](CCCCN)NC(=O)[C@H](Cc1ccccc1)NC(=O)[C@H](CC(N)=O)NC(=O)[C@H](Cc1cnc[nH]1)NC(=O)[C@@H](NC(=O)[C@H](Cc1ccccc1)NC(=O)[C@@H](NC(=O)[C@H](C)NC(=O)[C@H](CCSC)NC(=O)[C@H](CCC(N)=O)NC(=O)[C@@H](NC(=O)[C@H](C)NC(=O)[C@@H](NC(=O)[C@H](CCCCN)NC(=O)[C@H](CC(C)C)NC(=O)[C@@H](N)Cc1cnc[nH]1)[C@@H](C)O)C(C)C)C(C)C)[C@@H](C)CC)[C@@H](C)CC)C(C)C)[C@@H](C)CC)[C@@H](C)CC)[C@@H](C)O)C(=O)N[C@@H](CCC(N)=O)C(N)=O (H-HLKTAVQMAVFIHNFKR[Ahp]AGERIVDIIATDIQ-NH2) | 6.04 | Active
2 | CC[C@H](C)[C@H](NC(=O)[C@H](CC(=O)O)NC(=O)[C@@H](NC(=O)[C@H](C)NC(=O)[C@@H](NC(=O)[C@@H](NC(=O)[C@H](CC(=O)O)NC(=O)[C@@H](NC(=O)[C@@H](NC(=O)[C@H](CCCNC(=N)N)NC(=O)[C@H](CCC(=O)O)NC(=O)CNC(=O)[C@H](C)NC(=O)CCCCCCCCCNC(=O)[C@H](CCCNC(=N)N)NC(=O)[C@H](CCCCN)NC(=O)[C@H](Cc1ccccc1)NC(=O)[C@H](CC(N)=O)NC(=O)[C@H](Cc1cnc[nH]1)NC(=O)[C@@H](NC(=O)[C@H](Cc1ccccc1)NC(=O)[C@@H](NC(=O)[C@H](C)NC(=O)[C@H](CCSC)NC(=O)[C@H](CCC(N)=O)NC(=O)[C@@H](NC(=O)[C@H](C)NC(=O)[C@@H](NC(=O)[C@H](CCCCN)NC(=O)[C@H](CC(C)C)NC(=O)[C@@H](N)Cc1cnc[nH]1)[C@@H](C)O)C(C)C)C(C)C)[C@@H](C)CC)[C@@H](C)CC)C(C)C)[C@@H](C)CC)[C@@H](C)CC)[C@@H](C)O)C(=O)N[C@@H](CCC(N)=O)C(N)=O (H-HLKTAVQMAVFIHNFKR[NH(CH2)9CO]AGERIVDIIATDIQ-NH2) | 6.12 | Active
3 | CC[C@H](C)[C@H](NC(=O)[C@H](CC(=O)O)NC(=O)[C@@H](NC(=O)[C@H](C)NC(=O)[C@@H](NC(=O)[C@@H](NC(=O)[C@H](CC(=O)O)NC(=O)[C@@H](NC(=O)[C@@H](NC(=O)[C@H](CCCNC(=N)N)NC(=O)[C@H](CCC(=O)O)NC(=O)CNC(=O)[C@H](C)NC(=O)COCCOCCNC(=O)[C@H](CCCNC(=N)N)NC(=O)[C@H](CCCCN)NC(=O)[C@H](Cc1ccccc1)NC(=O)[C@H](CC(N)=O)NC(=O)[C@H](Cc1cnc[nH]1)NC(=O)[C@@H](NC(=O)[C@H](Cc1ccccc1)NC(=O)[C@@H](NC(=O)[C@H](C)NC(=O)[C@H](CCSC)NC(=O)[C@H](CCC(N)=O)NC(=O)[C@@H](NC(=O)[C@H](C)NC(=O)[C@@H](NC(=O)[C@H](CCCCN)NC(=O)[C@H](CC(C)C)NC(=O)[C@@H](N)Cc1cnc[nH]1)[C@@H](C)O)C(C)C)C(C)C)[C@@H](C)CC)[C@@H](C)CC)C(C)C)[C@@H](C)CC)[C@@H](C)CC)[C@@H](C)O)C(=O)N[C@@H](CCC(N)=O)C(N)=O (H-HLKTAVQMAVFIHNFKR[AEEA]AGERIVDIIATDIQ-NH2) | 5.97 | Active
4 | CC[C@H](C)[C@H](NC(=O)[C@H](CC(=O)O)NC(=O)[C@@H](NC(=O)[C@H](C)NC(=O)[C@@H](NC(=O)[C@@H](NC(=O)[C@H](CC(=O)O)NC(=O)[C@@H](NC(=O)[C@@H](NC(=O)[C@H](CCCNC(=N)N)NC(=O)[C@H](CCC(=O)O)NC(=O)CNC(=O)[C@H](C)NC(=O)CC1CCN(C(=O)[C@H](CCCNC(=N)N)NC(=O)[C@H](CCCCN)NC(=O)[C@H](Cc2ccccc2)NC(=O)[C@H](CC(N)=O)NC(=O)[C@H](Cc2cnc[nH]2)NC(=O)[C@@H](NC(=O)[C@H](Cc2ccccc2)NC(=O)[C@@H](NC(=O)[C@H](C)NC(=O)[C@H](CCSC)NC(=O)[C@H](CCC(N)=O)NC(=O)[C@@H](NC(=O)[C@H](C)NC(=O)[C@@H](NC(=O)[C@H](CCCCN)NC(=O)[C@H](CC(C)C)NC(=O)[C@@H](N)Cc2cnc[nH]2)[C@@H](C)O)C(C)C)C(C)C)[C@@H](C)CC)CC1)[C@@H](C)CC)C(C)C)[C@@H](C)CC)[C@@H](C)CC)[C@@H](C)O)C(=O)N[C@@H](CCC(N)=O)C(N)=O (H-HLKTAVQMAVFIHNFKR[X3]AGERIVDIIATDIQ-NH2) | 6.24 | Active
5 | H-HLKTAVQMAVFIHNFKRKGGIGGYSAGERIVDIIATDIQ-NH2 | 5.77 | Active
6 | H-AGERIVDIIATDIQ-NH2 | 5.52 | 
7 | CC[C@H](C)[C@H](NC(=O)[C@H](CC(=O)O)NC(=O)[C@@H](NC(=O)[C@H](C)NC(=O)[C@@H](NC(=O)[C@@H](NC(=O)[C@H](CC(=O)O)NC(=O)[C@@H](NC(=O)[C@@H](NC(=O)[C@H](CCCNC(=N)N)NC(=O)[C@H](CCC(=O)O)NC(=O)CNC(=O)[C@H](C)NC(=O)CCCCCCCNC(=O)[C@H](CCCNC(=N)N)NC(=O)[C@H](CCCCN)NC(=O)[C@H](Cc1ccccc1)NC(=O)[C@H](CC(N)=O)NC(=O)[C@H](Cc1cnc[nH]1)NC(=O)[C@@H](NC(=O)[C@H](Cc1ccccc1)NC(=O)[C@@H](NC(=O)[C@H](C)NC(=O)[C@H](CCSC)NC(=O)[C@H](CCC(N)=O)NC(=O)[C@@H](NC(=O)[C@H](C)NC(=O)[C@@H](NC(=O)[C@H](CCCCN)NC(=O)[C@H](CC(C)C)NC(=O)[C@@H](N)Cc1cnc[nH]1)[C@@H](C)O)C(C)C)C(C)C)[C@@H](C)CC)[C@@H](C)CC)C(C)C)[C@@H](C)CC)[C@@H](C)CC)[C@@H](C)O)C(=O)N[C@@H](CCC(N)=O)C(N)=O (H-HLKTAVQMAVFIHNFKR[Aoc]AGERIVDIIATDIQ-NH2) | 6.17 | Active
8 | CC[C@H](C)[C@H](NC(=O)[C@H](CC(=O)O)NC(=O)[C@@H](NC(=O)[C@H](C)NC(=O)[C@@H](NC(=O)[C@@H](NC(=O)[C@H](CC(=O)O)NC(=O)[C@@H](NC(=O)[C@@H](NC(=O)[C@H](CCCNC(=N)N)NC(=O)[C@H](CCC(=O)O)NC(=O)CNC(=O)[C@H](C)NC(=O)CCCCCCCCNC(=O)[C@H](CCCNC(=N)N)NC(=O)[C@H](CCCCN)NC(=O)[C@H](Cc1ccccc1)NC(=O)[C@H](CC(N)=O)NC(=O)[C@H](Cc1cnc[nH]1)NC(=O)[C@@H](NC(=O)[C@H](Cc1ccccc1)NC(=O)[C@@H](NC(=O)[C@H](C)NC(=O)[C@H](CCSC)NC(=O)[C@H](CCC(N)=O)NC(=O)[C@@H](NC(=O)[C@H](C)NC(=O)[C@@H](NC(=O)[C@H](CCCCN)NC(=O)[C@H](CC(C)C)NC(=O)[C@@H](N)Cc1cnc[nH]1)[C@@H](C)O)C(C)C)C(C)C)[C@@H](C)CC)[C@@H](C)CC)C(C)C)[C@@H](C)CC)[C@@H](C)CC)[C@@H](C)O)C(=O)N[C@@H](CCC(N)=O)C(N)=O (H-HLKTAVQMAVFIHNFKR[NH(CH2)8CO]AGERIVDIIATDIQ-NH2) | 6.14 | Active
9 | CC[C@H](C)[C@H](NC(=O)[C@H](CC(=O)O)NC(=O)[C@@H](NC(=O)[C@H](C)NC(=O)[C@@H](NC(=O)[C@@H](NC(=O)[C@H](CC(=O)O)NC(=O)[C@@H](NC(=O)[C@@H](NC(=O)[C@H](CCCNC(=N)N)NC(=O)[C@H](CCC(=O)O)NC(=O)CNC(=O)[C@H](C)NC(=O)CCCCCCCCCCNC(=O)[C@H](CCCNC(=N)N)NC(=O)[C@H](CCCCN)NC(=O)[C@H](Cc1ccccc1)NC(=O)[C@H](CC(N)=O)NC(=O)[C@H](Cc1cnc[nH]1)NC(=O)[C@@H](NC(=O)[C@H](Cc1ccccc1)NC(=O)[C@@H](NC(=O)[C@H](C)NC(=O)[C@H](CCSC)NC(=O)[C@H](CCC(N)=O)NC(=O)[C@@H](NC(=O)[C@H](C)NC(=O)[C@@H](NC(=O)[C@H](CCCCN)NC(=O)[C@H](CC(C)C)NC(=O)[C@@H](N)Cc1cnc[nH]1)[C@@H](C)O)C(C)C)C(C)C)[C@@H](C)CC)[C@@H](C)CC)C(C)C)[C@@H](C)CC)[C@@H](C)CC)[C@@H](C)O)C(=O)N[C@@H](CCC(N)=O)C(N)=O (H-HLKTAVQMAVFIHNFKR[Aun]AGERIVDIIATDIQ-NH2) | 6.07 | Active
10 | CC[C@H](C)[C@H](NC(=O)[C@H](CC(=O)O)NC(=O)[C@@H](NC(=O)[C@H](C)NC(=O)[C@@H](NC(=O)[C@@H](NC(=O)[C@H](CC(=O)O)NC(=O)[C@@H](NC(=O)[C@@H](NC(=O)[C@H](CCCNC(=N)N)NC(=O)[C@H](CCC(=O)O)NC(=O)CNC(=O)[C@H](C)NC(=O)C1CCCC(CNC(=O)[C@H](CCCNC(=N)N)NC(=O)[C@H](CCCCN)NC(=O)[C@H](Cc2ccccc2)NC(=O)[C@H](CC(N)=O)NC(=O)[C@H](Cc2cnc[nH]2)NC(=O)[C@@H](NC(=O)[C@H](Cc2ccccc2)NC(=O)[C@@H](NC(=O)[C@H](C)NC(=O)[C@H](CCSC)NC(=O)[C@H](CCC(N)=O)NC(=O)[C@@H](NC(=O)[C@H](C)NC(=O)[C@@H](NC(=O)[C@H](CCCCN)NC(=O)[C@H](CC(C)C)NC(=O)[C@@H](N)Cc2cnc[nH]2)[C@@H](C)O)C(C)C)C(C)C)[C@@H](C)CC)C1)[C@@H](C)CC)C(C)C)[C@@H](C)CC)[C@@H](C)CC)[C@@H](C)O)C(=O)N[C@@H](CCC(N)=O)C(N)=O (stereo partly specified) (H-HLKTAVQMAVFIHNFKR[X2]AGERIVDIIATDIQ-NH2) | 6.00 | Active
11 | CC[C@H](C)[C@H](NC(=O)[C@H](CC(=O)O)NC(=O)[C@@H](NC(=O)[C@H](C)NC(=O)[C@@H](NC(=O)[C@@H](NC(=O)[C@H](CC(=O)O)NC(=O)[C@@H](NC(=O)[C@@H](NC(=O)[C@H](CCCNC(=N)N)NC(=O)[C@H](CCC(=O)O)NC(=O)CNC(=O)[C@H](C)NC(=O)CCCCNC(=O)[C@H](CCCNC(=N)N)NC(=O)[C@H](CCCCN)NC(=O)[C@H](Cc1ccccc1)NC(=O)[C@H](CC(N)=O)NC(=O)[C@H](Cc1cnc[nH]1)NC(=O)[C@@H](NC(=O)[C@H](Cc1ccccc1)NC(=O)[C@@H](NC(=O)[C@H](C)NC(=O)[C@H](CCSC)NC(=O)[C@H](CCC(N)=O)NC(=O)[C@@H](NC(=O)[C@H](C)NC(=O)[C@@H](NC(=O)[C@H](CCCCN)NC(=O)[C@H](CC(C)C)NC(=O)[C@@H](N)Cc1cnc[nH]1)[C@@H](C)O)C(C)C)C(C)C)[C@@H](C)CC)[C@@H](C)CC)C(C)C)[C@@H](C)CC)[C@@H](C)CC)[C@@H](C)O)C(=O)N[C@@H](CCC(N)=O)C(N)=O (H-HLKTAVQMAVFIHNFKR[Ava]AGERIVDIIATDIQ-NH2) | 5.43 | 
12 | H-HLKTAVQMAVFIHNFKR-OH | 5.70 | 
